# Laboratory results published in patent US20220106301A1, “ACETAMIDO-PHENYLBENZAMIDE DERIVATIVES AND METHODS OF USING THE SAME” (Athenex, Inc., priority 2020, published 2022).
# Molecular target: CYP3A4 (Homo sapiens, UniProt P08684)
# Test: Determination of CYP3A4 inhibitory activity (human liver microsome, Luciferin-IPA)
# Conditions: CYP3A4 IC50 (nM), 37° C. 11 minutes
# Procedure: The standard final Compound concentrations were 37, 111, 333, 1000, and 3000 nM. 12.5 μL of the Compound dilutions were transferred to a white 96-well plate. […] 25 μL of the buffer was added to each well. The plates were incubated at 37° C. for 11 minutes. 50 μL of luciferin detection reagent (Promega V9002) was added and the plates were incubated at room temperature for 5 minutes. The plate was read with a luminometer.
# The dose-response curve and IC50 were obtained by fitting data to nonlinear regression model using GraphPad Prism software (v6.0).
# Sequence of CYP3A4 (P08684 whole entry): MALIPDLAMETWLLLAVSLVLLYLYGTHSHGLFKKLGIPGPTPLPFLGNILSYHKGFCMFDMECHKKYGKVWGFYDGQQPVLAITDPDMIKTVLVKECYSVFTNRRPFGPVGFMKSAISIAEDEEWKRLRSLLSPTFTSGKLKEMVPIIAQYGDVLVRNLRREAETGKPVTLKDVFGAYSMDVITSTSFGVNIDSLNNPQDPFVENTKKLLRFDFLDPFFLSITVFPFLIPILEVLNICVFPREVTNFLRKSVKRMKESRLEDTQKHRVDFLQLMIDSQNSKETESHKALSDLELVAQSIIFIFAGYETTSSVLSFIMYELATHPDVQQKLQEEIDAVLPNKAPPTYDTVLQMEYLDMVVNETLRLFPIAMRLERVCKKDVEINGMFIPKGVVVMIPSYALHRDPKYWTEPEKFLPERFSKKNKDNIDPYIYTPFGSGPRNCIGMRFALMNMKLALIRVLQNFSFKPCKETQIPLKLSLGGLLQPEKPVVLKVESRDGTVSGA
row,SMILES,IC50
1,COc1cncc(CN(CCc2ccc(NC(=O)c3ccc(C(=O)NS(=O)(=O)N(C)C)cc3NC(=O)c3cc(=O)c4ccccc4o3)cc2)Cc2ccc3c(cnn3C)c2)c1 [Compound 278],250 to 500 nM
2,CCN(CCc1ccc(NC(=O)c2cc(OC)c(OC)cc2NC(=O)c2cc(=O)c3ccccc3o2)cc1)Cc1ccc(-n2cncn2)cc1 [Compound 20],100 to 250 nM
3,COc1cc(NC(=O)C2CC(=O)c3ccccc3O2)c(C(=O)Nc2ccc(CCN(Cc3cccc(-n4ccnc4)c3)Cc3cc(OC)c(OC)c(OC)c3)cc2)cc1OC (stereo not shown) [Compound 213],< 100 nM
4,COc1cc(NC(=O)c2cc(=O)c3ccccc3o2)c(C(=O)Nc2ccc(CCN(C)Cc3ccc(-n4ccnc4)cc3)cc2)cc1OC [Compound 1],100 to 250 nM
5,COc1cc(NC(=O)c2cc(=O)c3ccccc3o2)c(C(=O)Nc2ccc(CCN(Cc3cccnc3)Cc3ccc4c(c3)nnn4C)cc2)cc1OC [Compound 221],250 to 500 nM
6,COc1cc(NC(=O)c2cc(=O)c3ccccc3o2)c(C(=O)Nc2ccc(CCN(C)Cc3ccc4c(ccn4C)c3)cc2)cc1OC [Compound 190],> 1000 nM
7,COc1cc(NC(=O)c2cc(=O)c3cc(C)ccc3o2)c(C(=O)Nc2ccc(CCN(Cc3cccnc3)Cc3ccc4c(cnn4C)c3)cc2)cc1OC [Compound 38],100 to 250 nM
8,COc1cc(NC(=O)c2cc(=O)c3ccccc3o2)c(C(=O)Nc2ccc(CCN(Cc3cccc(-n4ccnc4)c3)CC3CC3)cc2)cc1OC [Compound 9],100 to 250 nM
9,COc1cc(NC(=O)c2cc(=O)c3ccccc3o2)c(C(=O)Nc2ccc(CCN(C)Cc3ccc(-c4nn[nH]n4)cc3)cc2)cc1OC [Compound 148],> 1000 nM
10,COc1cc(NC(=O)c2cc(=O)c3ccccc3o2)c(C(=O)Nc2ccc(CCN(Cc3cncc(-n4ccnc4C)c3)Cc3ccc4c(cnn4C)c3)cc2)cc1OC [Compound 58],500 to 1000 nM
11,CCN1CNC=C1CN(CCc1ccc(NC(=O)c2cc(OC)c(OC)cc2NC(=O)c2cc(=O)c3ccccc3o2)cc1)Cc1ccc2cnn(C)c2c1 [Compound 37],100 to 250 nM
12,COc1cc(NC(=O)c2cc(=O)c3ccccc3o2)c(C(=O)Nc2ccc(CCN(C)Cc3ccc4c(c3)CCO4)cc2)cc1OC [Compound 155],> 1000 nM
13,COc1cc(NC(=O)c2cc(=O)c3ccccc3o2)c(C(=O)Nc2ccc(CCN(Cc3cncc(OCCN(C)C)c3)Cc3ccc4c(cnn4C)c3)cc2)cc1OC [Compound 244],> 1000 nM
14,CCN(CCc1ccc(NC(=O)c2cc(OC)c(OC)cc2NC(=O)c2cc(=O)c3ccccc3o2)cc1)Cc1cccc(-n2cnc(C)c2)c1 [Compound 107],100 to 250 nM
15,COc1cc(NC(=O)c2cc(=O)c3ccccc3o2)c(C(=O)Nc2ccc(CCN(Cc3cncc(-c4ccccc4)c3)Cc3ccc4c(cnn4C)c3)cc2)cc1OC [Compound 254],> 1000 nM
16,COc1cc(NC(=O)c2cc(=O)c3ccccc3o2)c(C(=O)Nc2ccc(CCN(Cc3ccc(-n4ccnc4C)cc3)Cc3cccc(-n4ccnc4)c3)cc2)cc1OC [Compound 243],> 1000 nM
17,COC(=O)c1ccc(C(=O)Nc2ccc(CCN(C)Cc3ccc4c(cnn4C)c3)cc2)c(NC(=O)c2ccccn2)c1 [Compound 277],> 1000 nM
18,CCOc1cc(C(=O)Nc2ccc(CCN(C)Cc3ccc(-n4ccnc4)cc3)cc2)c(NC(=O)c2cc(=O)c3ccccc3o2)cc1OC [Compound 108],250 to 500 nM
19,CN(CCc1ccc(NC(=O)c2ccc(C(=O)OCc3cscn3)cc2NC(=O)c2cc(=O)c3ccccc3o2)cc1)Cc1ccc2c(cnn2C)c1 [Compound 280],100 to 250 nM
20,COc1cc(NC(=O)c2cc(=O)c3ccccc3o2)c(C(=O)Nc2ccc(CCN(Cc3ccc(-n4cncn4)cc3)Cc3ccc4c(cnn4C)c3)cc2)cc1OC [Compound 142],> 1000 nM
21,COc1cc(NC(=O)c2cc(=O)c3ccccc3o2)c(C(=O)Nc2ccc(CCN(Cc3ccc(-n4ccnc4)cc3)Cc3ccc4c(cnn4C)c3)cc2)cc1OC [Compound 26],250 to 500 nM
22,COc1cc(NC(=O)c2cc(=O)c3ccccc3o2)c(C(=O)Nc2ccc(CCN(Cc3cccc(-n4ccnc4)c3)C(C)C)cc2)cc1OC [Compound 10],250 to 500 nM
23,COc1cc(NC(=O)c2cc(=O)c3ccccc3o2)c(C(=O)Nc2ccc(CCN(Cc3ccc4c(cnn4C)c3)Cc3ccncc3F)cc2)cc1OC [Compound 47],250 to 500 nM
24,COc1cc(NC(=O)c2cc(=O)c3ccccc3o2)c(C(=O)Nc2ccc(CCN(C)Cc3ccc4c(c3)OCO4)cc2)cc1OC [Compound 138],> 1000 nM
25,CN(CCc1ccc(NC(=O)c2ccc(C(=O)O)cc2NC(=O)c2cc(=O)c3ccccc3o2)cc1)Cc1ccc2c(cnn2C)c1 [Compound 271],> 1000 nM
26,CCCN(CCc1ccc(NC(=O)c2cc(OC)c(OC)cc2NC(=O)c2cc(=O)c3ccccc3o2)cc1)Cc1ccc(-n2ccnc2)c(OC)c1 [Compound 91],100 to 250 nM
27,COc1cc(NC(=O)c2cnc3ccccc3n2)c(C(=O)Nc2ccc(CCN(Cc3ccc4c(cnn4C)c3)Cc3ccc4cnn(C)c4c3)cc2)cc1OC [Compound 172],> 1000 nM
28,CCN(CCc1ccc(NC(=O)c2cc(OC)c(OC)cc2NC(=O)c2cc(=O)c3ccccc3o2)cc1)Cc1ccc2c(cnn2C)c1 [Compound 106],> 1000 nM

row,SMILES,IC50
1,COc1cc(NC(=O)c2cc(=O)c3ccccc3o2)c(C(=O)Nc2ccc(CCN(Cc3cccc(-n4ccnc4)c3)Cc3ccc4nn(C)cc4c3)cc2)cc1OC [Compound 204],250 to 500 nM
2,COc1cc(NC(=O)c2cnc3ccccc3n2)c(C(=O)Nc2ccc(CCN(Cc3ccc4c(cnn4C)c3)Cc3ccc4c(cnn4C)c3)cc2)cc1OC [Compound 167],> 1000 nM
3,COCCOc1cncc(CN(CCc2ccc(NC(=O)c3cc(OC)c(OC)cc3NC(=O)c3cnc4ccccc4c3)cc2)Cc2ccc3c(cnn3C)c2)c1 [Compound 61],250 to 500 nM
4,COCCOc1cncc(CN(CCc2ccc(NC(=O)c3cc(OC)c(OC)cc3NC(=O)c3cc(=O)c4cc(C)ccc4o3)cc2)Cc2ccc3c(cnn3C)c2)c1 [Compound 60],250 to 500 nM
5,COc1cc(NC(=O)c2cc(=O)c(O)co2)c(C(=O)Nc2ccc(CCN(C)Cc3cccc(-n4ccnc4)c3)cc2)cc1OC [Compound 129],> 1000 nM
6,COc1cncc(CN(CCc2ccc(NC(=O)c3cc(OC)c(OC)cc3NC(=O)c3cc(=O)c4cc(C)ccc4o3)cc2)Cc2ccc3c(c2)c(C)nn3C)c1 [Compound 67],100 to 250 nM
7,COc1cc(NC(=O)c2cc(=O)c3ccccc3o2)c(C(=O)Nc2ccc(CCN(C)C(=O)CCc3cccnc3)cc2)cc1OC [Compound 119],100 to 250 nM
8,COc1cncc(CN(CCc2ccc(NC(=O)c3cc(OC)c(OC)cc3NC(=O)c3cc(=O)c4ccccc4o3)cc2)Cc2cccc(-n3ccnc3)c2)c1 [Compound 217],100 to 250 nM
9,COc1cc(NC(=O)c2cc(=O)c3ccccc3o2)c(C(=O)Nc2ccc(CCN(Cc3ccc4c(cnn4C)c3)Cc3cnccc3O)cc2)cc1OC [Compound 228],> 1000 nM
10,CCN(CCc1ccc(NC(=O)c2cc(OC)c(OC)cc2NC(=O)c2cc(=O)c3ccccc3o2)cc1)Cc1ccc(OC)c(O)c1 [Compound 133],> 1000 nM
11,COc1cc(NC(=O)c2cc(=O)c3ccccc3o2)c(C(=O)Nc2ccc(CCN(Cc3ccc(-c4cccnc4)cc3)Cc3ccc4c(cnn4C)c3)cc2)cc1OC [Compound 189],> 1000 nM
12,COc1cc(NC(=O)c2cnc3ccccc3c2)c(C(=O)Nc2ccc(CCN(C)Cc3ccc(-n4ccnc4)cc3)cc2)cc1OC [Compound 2],100 to 250 nM
13,CCN(CCc1ccc(NC(=O)c2cc(OC)c(OC)cc2NC(=O)c2cc(=O)c3ccccc3o2)cc1)Cc1cccn1Cc1cccnc1 [Compound 25],250 to 500 nM
14,COc1cc(NC(=O)c2cc(=O)c3ccccc3o2)c(C(=O)NCc2ccc(CN(Cc3cccc(-c4cncs4)c3)Cc3ccc4c(cnn4C)c3)cc2)cc1OC [Compound 236],> 1000 nM
15,COc1cc(NC(=O)c2cc(=O)c3ccccc3o2)c(C(=O)Nc2ccc(CCN(CC3=CNCN3C)Cc3ccc4cnn(C)c4c3)cc2)cc1OC [Compound 35],> 1000 nM
16,COc1cc(NC(=O)c2cc(=O)c3ccccc3o2)c(C(=O)Nc2ccc(CCN(Cc3cccc(-n4ccnc4)c3)Cc3cccc(-n4ccnc4C)c3)cc2)cc1OC [Compound 245],250 to 500 nM
17,COc1cc(NC(=O)c2cc(=O)c3ccccc3o2)c(C(=O)Nc2ccc(CCN(Cc3cccc(-n4ccnc4)c3)Cc3ccc4cnn(C)c4c3)cc2)cc1OC [Compound 177],< 100 nM
18,COC(=O)c1ccc(C(=O)Nc2ccc(CCN(Cc3ccc(OC)c(OC)c3)Cc3ccc(OC)c(OC)c3)cc2)c(NC(=O)c2cc(=O)c3ccccc3o2)c1 [Compound 263],> 1000 nM
19,COCCOc1cncc(CN(CCc2ccc(NC(=O)c3cc(OC)c(OC)cc3NC(=O)c3cnc4ccccc4n3)cc2)Cc2ccc3c(cnn3C)c2)c1 [Compound 62],500 to 1000 nM
20,COc1cc(NC(=O)c2cc(=O)c3ccccc3o2)c(C(=O)Nc2ccc(CCN(Cc3ccc(N)nc3)Cc3ccc4c(cnn4C)c3)cc2)cc1OC [Compound 224],> 1000 nM
21,CCN(CCc1ccc(NC(=O)c2cc(OC)c(OC)cc2NC(=O)c2cc(=O)c3ccccc3o2)cc1)Cc1ccc(-c2ccco2)cc1 [Compound 143],> 1000 nM
22,COc1cc(NC(=O)c2cc(=O)c3cc(C)ccc3o2)c(C(=O)Nc2ccc(CCN(Cc3cncc(O)c3)Cc3ccc4c(cnn4C)c3)cc2)cc1OC [Compound 59],100 to 250 nM
23,COc1cc(NC(=O)c2cc(=O)c3ccccc3o2)c(C(=O)Nc2ccc(CCN(Cc3cccnc3)Cc3ccc4c(c3)n(C)c(=O)n4C)cc2)cc1OC [Compound 44],100 to 250 nM
24,CCN(CCc1ccc(NC(=O)c2cc(OC)c(OC)cc2NC(=O)c2cc(=O)c3ccccc3o2)cc1)Cc1ccc(OCCn2ccnc2)cc1 [Compound 131],250 to 500 nM
25,C#Cc1cccc(CN(C)CCc2ccc(NC(=O)c3cc(OC)c(OC)cc3NC(=O)c3cc(=O)c4ccccc4o3)cc2)c1 [Compound 116],> 1000 nM
26,C#Cc1ccc(CN(C)CCc2ccc(NC(=O)c3cc(OC)c(OC)cc3NC(=O)c3cc(=O)c4ccccc4o3)cc2)cc1 [Compound 115],> 1000 nM
27,CCOc1cc(C(=O)Nc2ccc(CCN(C)Cc3cccc(-n4cnc(C)c4)c3)cc2)c(NC(=O)c2cc(=O)c3ccccc3o2)cc1OC [Compound 110],500 to 1000 nM
